# Results reported in patent publication US11713338B2, “Cyclic peptides multimers targeting α-4-β-7 integrin” (priority 2016, dated 2023).
# pIC50: −log10 of the molar value.
# Target: T1, recombinant integrin α4β1 (Homo sapiens, UniProt P05556+P13612)
# T1 construct: purchased R&D Systems 5397-A3-050
# Test: Integrin α4β1—VCAM-1 competition ELISA
# Format: binding
# Details: for pIC50: read-out: ELISA α4β1 Assay IC50; for ELISA Assay Ratio β1/β7: ratio of ELISA IC50s, α4β1 over α4β7
# How it was run: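 Detection of bound ligand used HRP-conjugated anti-human IgG Fc, 1 h with agitation at room temperature. This followed a 2 h room-temperature, 300 rpm equilibration of compound in the coated wells. Washes were done in 50 mM Tris, 100 mM NaCl, 1 mM MnCl2, 0.05% Tween.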
# T1 sequence (P13612 34-970 limits assumed): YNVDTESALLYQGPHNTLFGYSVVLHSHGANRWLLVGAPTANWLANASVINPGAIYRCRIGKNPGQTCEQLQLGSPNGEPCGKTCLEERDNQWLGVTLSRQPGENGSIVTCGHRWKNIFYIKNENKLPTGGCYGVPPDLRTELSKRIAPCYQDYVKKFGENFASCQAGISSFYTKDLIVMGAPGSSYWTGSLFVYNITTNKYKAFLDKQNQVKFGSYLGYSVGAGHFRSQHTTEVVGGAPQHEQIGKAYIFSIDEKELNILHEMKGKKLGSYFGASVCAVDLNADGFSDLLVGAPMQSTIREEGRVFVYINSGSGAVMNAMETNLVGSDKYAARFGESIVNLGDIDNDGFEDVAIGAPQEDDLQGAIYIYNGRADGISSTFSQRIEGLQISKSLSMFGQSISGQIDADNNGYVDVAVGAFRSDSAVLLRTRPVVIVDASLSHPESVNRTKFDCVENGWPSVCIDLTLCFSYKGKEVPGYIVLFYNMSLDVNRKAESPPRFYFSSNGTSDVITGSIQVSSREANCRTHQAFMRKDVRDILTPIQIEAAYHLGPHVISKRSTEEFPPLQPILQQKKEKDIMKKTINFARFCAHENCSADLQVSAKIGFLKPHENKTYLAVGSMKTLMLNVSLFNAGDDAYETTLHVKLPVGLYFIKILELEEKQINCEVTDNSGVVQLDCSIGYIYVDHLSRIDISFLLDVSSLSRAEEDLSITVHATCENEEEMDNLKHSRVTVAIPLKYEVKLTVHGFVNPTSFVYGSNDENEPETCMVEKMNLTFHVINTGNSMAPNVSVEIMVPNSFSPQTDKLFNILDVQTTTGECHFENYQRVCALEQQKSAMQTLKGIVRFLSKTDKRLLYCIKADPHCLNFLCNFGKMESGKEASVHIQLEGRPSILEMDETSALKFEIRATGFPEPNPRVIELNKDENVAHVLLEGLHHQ
# T1 sequence (P05556 21-728 limits assumed): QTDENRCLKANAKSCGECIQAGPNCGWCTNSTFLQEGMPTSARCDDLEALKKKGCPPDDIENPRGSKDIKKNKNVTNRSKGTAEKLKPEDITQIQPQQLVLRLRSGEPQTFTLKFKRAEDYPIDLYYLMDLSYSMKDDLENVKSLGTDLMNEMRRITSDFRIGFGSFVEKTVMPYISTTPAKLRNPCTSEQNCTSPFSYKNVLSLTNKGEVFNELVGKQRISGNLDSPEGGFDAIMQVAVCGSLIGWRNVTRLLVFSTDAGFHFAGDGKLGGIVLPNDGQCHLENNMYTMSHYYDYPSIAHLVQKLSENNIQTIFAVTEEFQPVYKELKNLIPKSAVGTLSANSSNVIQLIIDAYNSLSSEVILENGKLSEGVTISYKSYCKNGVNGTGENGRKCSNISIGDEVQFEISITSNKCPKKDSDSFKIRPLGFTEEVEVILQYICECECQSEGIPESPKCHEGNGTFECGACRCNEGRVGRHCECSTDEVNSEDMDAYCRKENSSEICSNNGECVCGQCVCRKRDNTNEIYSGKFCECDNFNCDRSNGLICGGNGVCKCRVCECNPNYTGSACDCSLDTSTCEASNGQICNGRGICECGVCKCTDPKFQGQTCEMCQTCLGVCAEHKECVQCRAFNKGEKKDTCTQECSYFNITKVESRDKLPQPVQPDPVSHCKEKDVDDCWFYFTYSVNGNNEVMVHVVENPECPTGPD
SMILES,pIC50,ELISA Assay Ratio β1/β7
CC(C)C[C@@H]1NC(=O)c2ccc(-c3ccc(N4CCN(C(=O)c5cc(F)ccc5-c5ccc(F)cc5C(=O)N5CCN(c6ccc(-c7ccc8cc7CNC(=O)[C@@H]7CCCN7[C@H](C(=O)NC(C)(C)C)[C@H](C)NC(=O)[C@H]([C@@H](C)O)NC(=O)[C@H](CC(=O)O)NC(=O)[C@H](CC(C)C)NC8=O)cc6)CC5)CC4)cc3)c(c2)CNC(=O)[C@@H]2CCCN2[C@H](C(=O)NC(C)(C)C)[C@H](C)NC(=O)[C@H]([C@@H](C)O)NC(=O)[C@H](CC(=O)O)NC1=O [Compound 475],8.96,–
CC(C)C[C@@H]1NC(=O)c2ccc(-c3ccc(N4CCN(CC(=O)N5CCN(c6ccc(-c7ccc8cc7CNC(=O)[C@@H]7CCCN7[C@H](C(=O)NC(C)(C)C)[C@H](C)NC(=O)[C@H]([C@@H](C)O)NC(=O)[C@H](CC(=O)O)NC(=O)[C@H](CC(C)C)NC8=O)cc6)CC5)CC4)cc3)c(c2)CNC(=O)[C@@H]2CCCN2[C@H](C(=O)NC(C)(C)C)[C@H](C)NC(=O)[C@H]([C@@H](C)O)NC(=O)[C@H](CC(=O)O)NC1=O [Compound 481],8.80,0.2
CC(C)C[C@@H]1NC(=O)c2ccc(-c3ccc(N4CCN(CCC(=O)N5CCN(c6ccc(-c7ccc8cc7CNC(=O)[C@@H]7CCCN7[C@H](C(=O)NC(C)(C)C)[C@H](C)NC(=O)[C@H]([C@@H](C)O)NC(=O)[C@H](CC(=O)O)NC(=O)[C@H](CC(C)C)NC8=O)cc6)CC5)CC4)cc3)c(c2)CNC(=O)[C@@H]2CCCN2[C@H](C(=O)NC(C)(C)C)[C@H](C)NC(=O)[C@H]([C@@H](C)O)NC(=O)[C@H](CC(=O)O)NC1=O [Compound 482],8.82,–
CC(C)C[C@@H]1NC(=O)c2ccc(-c3ccc(N4CCN(C(=O)CCC(=O)N5CCN(c6ccc(-c7ccc8cc7CNC(=O)[C@@H]7CCCN7[C@H](C(=O)NC(C)(C)C)[C@H](C)NC(=O)[C@H]([C@@H](C)O)NC(=O)[C@H](CC(=O)O)NC(=O)[C@H](CC(C)C)NC8=O)cc6)CC5)CC4)cc3)c(c2)CNC(=O)[C@@H]2CCCN2[C@H](C(=O)NC(C)(C)C)[C@H](C)NC(=O)[C@H]([C@@H](C)O)NC(=O)[C@H](CC(=O)O)NC1=O [Compound 484],8.92,–
CC(C)C[C@@H]1NC(=O)c2ccc(-c3ccc(N4CCN(C(=O)C[C@@H](N)C(=O)N5CCN(c6ccc(-c7ccc8cc7CNC(=O)[C@@H]7CCCN7[C@H](C(=O)NC(C)(C)C)[C@H](C)NC(=O)[C@H]([C@@H](C)O)NC(=O)[C@H](CC(=O)O)NC(=O)[C@H](CC(C)C)NC8=O)cc6)CC5)CC4)cc3)c(c2)CNC(=O)[C@@H]2CCCN2[C@H](C(=O)NC(C)(C)C)[C@H](C)NC(=O)[C@H]([C@@H](C)O)NC(=O)[C@H](CC(=O)O)NC1=O [Compound 493],8.46,0.3
CC(C)C[C@@H]1NC(=O)c2ccc(-c3ccc(N4CCN(C(=O)CC[C@H](N)C(=O)N5CCN(c6ccc(-c7ccc8cc7CNC(=O)[C@@H]7CCCN7[C@H](C(=O)NC(C)(C)C)[C@H](C)NC(=O)[C@H]([C@@H](C)O)NC(=O)[C@H](CC(=O)O)NC(=O)[C@H](CC(C)C)NC8=O)cc6)CC5)CC4)cc3)c(c2)CNC(=O)[C@@H]2CCCN2[C@H](C(=O)NC(C)(C)C)[C@H](C)NC(=O)[C@H]([C@@H](C)O)NC(=O)[C@H](CC(=O)O)NC1=O [Compound 494],8.72,0.2
CC(C)C[C@@H]1NC(=O)c2ccc(-c3ccc(N4CCN(C(=O)[C@H](CCCCNC(=O)CCCCCC(=O)NCCCC[C@H](NC(=O)OCc5ccccc5)C(=O)N5CCN(c6ccc(-c7ccc8cc7CNC(=O)[C@@H]7CCCN7[C@H](C(=O)NC(C)(C)C)[C@H](C)NC(=O)[C@H]([C@@H](C)O)NC(=O)[C@H](CC(=O)O)NC(=O)[C@H](CC(C)C)NC8=O)cc6)CC5)NC(=O)OCc5ccccc5)CC4)cc3)c(c2)CNC(=O)[C@@H]2CCCN2[C@H](C(=O)NC(C)(C)C)[C@H](C)NC(=O)[C@H]([C@@H](C)O)NC(=O)[C@H](CC(=O)O)NC1=O [Compound 498],8.52,–
CC(C)C[C@@H]1NC(=O)c2ccc(-c3ccc(N4CCN(Cc5cccc(CN6CCN(c7ccc(-c8ccc9cc8CNC(=O)[C@@H]8CCCN8[C@H](C(=O)NC(C)(C)C)[C@H](C)NC(=O)[C@H]([C@@H](C)O)NC(=O)[C@H](CC(=O)O)NC(=O)[C@H](CC(C)C)NC9=O)cc7)CC6)c5)CC4)cc3)c(c2)CNC(=O)[C@@H]2CCCN2[C@H](C(=O)NC(C)(C)C)[C@H](C)NC(=O)[C@H]([C@@H](C)O)NC(=O)[C@H](CC(=O)O)NC1=O [Compound 499],8.51,0.2
CC(C)C[C@@H]1NC(=O)c2ccc(-c3ccc(N4CCN(Cc5ccc(CN6CCN(c7ccc(-c8ccc9cc8CNC(=O)[C@@H]8CCCN8[C@H](C(=O)NC(C)(C)C)[C@H](C)NC(=O)[C@H]([C@@H](C)O)NC(=O)[C@H](CC(=O)O)NC(=O)[C@H](CC(C)C)NC9=O)cc7)CC6)cc5)CC4)cc3)c(c2)CNC(=O)[C@@H]2CCCN2[C@H](C(=O)NC(C)(C)C)[C@H](C)NC(=O)[C@H]([C@@H](C)O)NC(=O)[C@H](CC(=O)O)NC1=O [Compound 500],8.00,0.8
CC(C)C[C@@H]1NC(=O)c2ccc(-c3ccc(N4CCN(C(=O)CCOCCOCCNC(=O)CCCCCC(=O)NCCOCCOCCC(=O)N5CCN(c6ccc(-c7ccc8cc7CNC(=O)[C@@H]7CCCN7[C@H](C(=O)NC(C)(C)C)[C@H](C)NC(=O)[C@H]([C@@H](C)O)NC(=O)[C@H](CC(=O)O)NC(=O)[C@H](CC(C)C)NC8=O)cc6)CC5)CC4)cc3)c(c2)CNC(=O)[C@@H]2CCCN2[C@H](C(=O)NC(C)(C)C)[C@H](C)NC(=O)[C@H]([C@@H](C)O)NC(=O)[C@H](CC(=O)O)NC1=O [Compound 505],8.18,0.3
CC(C)C[C@@H]1NC(=O)c2ccc(-c3ccc(N4CCN(C(=O)CCOCCOCCOCCOCCOCCOCCOCCOCCOCCOCCC(=O)N5CCN(c6ccc(-c7ccc8cc7CNC(=O)[C@@H]7CCCN7[C@H](C(=O)NC(C)(C)C)[C@H](C)NC(=O)[C@H]([C@@H](C)O)NC(=O)[C@H](CC(=O)O)NC(=O)[C@H](CC(C)C)NC8=O)cc6)CC5)CC4)cc3)c(c2)CNC(=O)[C@@H]2CCCN2[C@H](C(=O)NC(C)(C)C)[C@H](C)NC(=O)[C@H]([C@@H](C)O)NC(=O)[C@H](CC(=O)O)NC1=O [Compound 511],8.14,0.6
CC(C)C[C@@H]1NC(=O)c2ccc(-c3ccc(N4CCN(C(=O)c5ccccc5-c5ccccc5C(=O)N5CCN(c6ccc(-c7ccc8cc7CNC(=O)[C@@H]7CCCN7[C@H](C(=O)NC(C)(C)C)[C@H](C)NC(=O)[C@H]([C@@H](C)O)NC(=O)[C@H](CC(=O)O)NC(=O)[C@H](CC(C)C)NC8=O)cc6)CC5)CC4)cc3)c(c2)CNC(=O)[C@@H]2CCCN2[C@H](C(=O)NC(C)(C)C)[C@H](C)NC(=O)[C@H]([C@@H](C)O)NC(=O)[C@H](CC(=O)O)NC1=O [Compound 517],8.68,–
CC(C)C[C@@H]1NC(=O)c2ccc(-c3ccc(N4CCN(Cc5cc(CN6CCN(c7ccc(-c8ccc9cc8CNC(=O)[C@@H]8CCCN8[C@H](C(=O)NC(C)(C)C)[C@H](C)NC(=O)[C@H]([C@@H](C)O)NC(=O)[C@H](CC(=O)O)NC(=O)[C@H](CC(C)C)NC9=O)cc7)CC6)cc(CN6CCN(c7ccc(-c8ccc9cc8CNC(=O)[C@@H]8CCCN8[C@H](C(=O)NC(C)(C)C)[C@H](C)NC(=O)[C@H]([C@@H](C)O)NC(=O)[C@H](CC(=O)O)NC(=O)[C@H](CC(C)C)NC9=O)cc7)CC6)c5)CC4)cc3)c(c2)CNC(=O)[C@@H]2CCCN2[C@H](C(=O)NC(C)(C)C)[C@H](C)NC(=O)[C@H]([C@@H](C)O)NC(=O)[C@H](CC(=O)O)NC1=O [Compound 518],8.06,–
CC(C)C[C@@H]1NC(=O)c2ccc(-c3ccc(N4CCN(C(=O)c5cc(C(=O)N6CCN(c7ccc(-c8ccc9cc8CNC(=O)[C@@H]8CCCN8[C@H](C(=O)NC(C)(C)C)[C@H](C)NC(=O)[C@H]([C@@H](C)O)NC(=O)[C@H](CC(=O)O)NC(=O)[C@H](CC(C)C)NC9=O)cc7)CC6)cc(C(=O)N6CCN(c7ccc(-c8ccc9cc8CNC(=O)[C@@H]8CCCN8[C@H](C(=O)NC(C)(C)C)[C@H](C)NC(=O)[C@H]([C@@H](C)O)NC(=O)[C@H](CC(=O)O)NC(=O)[C@H](CC(C)C)NC9=O)cc7)CC6)c5)CC4)cc3)c(c2)CNC(=O)[C@@H]2CCCN2[C@H](C(=O)NC(C)(C)C)[C@H](C)NC(=O)[C@H]([C@@H](C)O)NC(=O)[C@H](CC(=O)O)NC1=O [Compound 520],8.92,–
CC(C)C[C@@H]1NC(=O)C[C@H](CCCCN)N(C)C(=O)[C@H](CCCCNC(=O)CCCCCCCCC(=O)NCCCC[C@@H]2NC(=O)[C@@H]3CCCN3[C@H](C(=O)NC(C)(C)C)[C@H](C)NC(=O)[C@H]([C@@H](C)O)NC(=O)[C@H](CC(=O)O)NC(=O)[C@H](CC(C)C)NC(=O)C[C@H](CCCCN)N(C)C2=O)NC(=O)[C@@H]2CCCN2[C@H](C(=O)NC(C)(C)C)[C@H](C)NC(=O)[C@H]([C@@H](C)O)NC(=O)[C@H](CC(=O)O)NC1=O [Compound 530],8.29,1.0
CC(C)C[C@@H]1NC(=O)C[C@H](CCCCN)N(C)C(=O)[C@H](CCCCNC(=O)CCCCCC(=O)NCCCC[C@@H]2NC(=O)[C@@H]3CCCN3[C@H](C(=O)NC(C)(C)C)[C@H](C)NC(=O)[C@H]([C@@H](C)O)NC(=O)[C@H](CC(=O)O)NC(=O)[C@H](CC(C)C)NC(=O)C[C@H](CCCCN)N(C)C2=O)NC(=O)[C@@H]2CCCN2[C@H](C(=O)NC(C)(C)C)[C@H](C)NC(=O)[C@H]([C@@H](C)O)NC(=O)[C@H](CC(=O)O)NC1=O [Compound 532],8.16,–
CC(C)C[C@@H]1NC(=O)C[C@H](CCCCN)N(C)C(=O)[C@H](CCCCNC(=O)CCCCCCCC(=O)NCCCC[C@@H]2NC(=O)[C@@H]3CCCN3[C@H](C(=O)NC(C)(C)C)[C@H](C)NC(=O)[C@H]([C@@H](C)O)NC(=O)[C@H](CC(=O)O)NC(=O)[C@H](CC(C)C)NC(=O)C[C@H](CCCCN)N(C)C2=O)NC(=O)[C@@H]2CCCN2[C@H](C(=O)NC(C)(C)C)[C@H](C)NC(=O)[C@H]([C@@H](C)O)NC(=O)[C@H](CC(=O)O)NC1=O [Compound 533],8.21,1.2
